These results are taken from US7951548B2, “IL-13 production inhibitor” (Takeda Pharmaceutical Company Limited, priority 2005, dated 2011).

Holding throughout (type): cell-based
Assay [1] relates to rat primary culture microglial cells (PMGC). Nature of the assay: Phosphorylation of ERK1/2 in PMGC. The following applies: lysoPS.
Assay [2] relates to rat peritoneal mast cells. Nature of the assay: Expression of IL-13 in rat peritoneal mast cells (TaqMan PCR, GAPDH corrected). As for the experimental part:
Rat peritoneal mast cells (hereinafter RPMC) were prepared as follows. Ice-chilled mast cell medium (hereinafter MCM; 150 mM NaCl, 3.7 mM KCl, 3.0 mM NaH2PO4, 3.5 mM KH2PO4, 5.6 mM (D)-Glucose, 0.1% bovine serum albumin (hereinafter BSA), 0.1% gelatin, 10 U/ml heparin, pH 6.8) was injected into the peritoneal cavity in about 40 ml/animal. After some massage of the rat abdominal region for about 2 minutes, the peritoneal cavity was opened along the median line to drain the ascitic fluid. The ascetic fluid prepared was filtered through a cell strainer (Becton Dickinson) and centrifuged at 50×g for 7 minutes. The cells precipitated were suspended in MCM and centrifuged again at 50×g for 7 minutes. After the precipitated cells were resuspended in MCM, the suspension was layered on 2 ml of 32% (w/v) BSA solution (dissolved in 0.9% NaCl), which was allowed to stand at room temperature for 20 minutes. After centrifugation was conducted at ×300 g for 15 minutes at room temperature, the cells in the interphase between MCM and BSA solution were discarded and the precipitated cells were suspended in MCM. The suspension was centrifuged at ×300 g for 5 minutes to wash the cells twice. The precipitated cells were suspended in assay buffer (RPMI 1640 medium (Invitrogen), 0.1% BSA) and the cells were provided for the following experiment. […] RPMC was activated as follows. RPMC was suspended in assay buffer and 10 μg/ml of monoclonal mouse antibody DNP-IgE (Yamasa) was added thereto. The mixture was allowed to stand for 30 minutes on ice for passive sensitization. After centrifugation at ×300 g for 5 minutes, the precipitated cells were washed 3 times with assay buffer. RPMC suspended in assay buffer was dispensed into a 96 well V-bottomed plate in 2×10^5/well. The assay was performed at n=3 under the respective reaction conditions. After a plate was kept warm at 37° C. for 5 minutes, lysoPS (Sigma) of 3 μM in a final concentration or DNP-BSA (Carbiochem) of 100 ng/ml in a final concentration was added depending on the assay conditions and the plate was allowed to stand at 37° C. in a 5% CO2 incubator. The plate was ice-cooled 2, 4, 6 and 8 hours after to terminate the activation of RPMC. Centrifugation was performed at ×300 g for 5 minutes and the total RNA was extracted from the cells precipitated using RNeasy Mini Kit (Qiagen) in accordance with the protocol attached. The obtained total RNA was concentrated and dissolved in RNase-free H2O in accordance with the protocol attached. Next, using 250 ng of the total RNA, reverse transcription was performed by the following procedure using SuperScript II ReverseTranscriptase (Invitrogen) to prepare single-stranded cDNA. After 0.5 μg of Oligo (dT) 12-18 primer (Invitrogen) and 1 μl of 10 mM dNTP (Invitrogen) were added to the total RNA solution and then RNase-free H2O was added to make the whole volume 12 μl, incubation was performed at 70° C. for 10 minutes followed by ice cooling for a minute. After adding 4 μl of 5× First-Strand Buffer (attached to SuperScript II ReverseTranscriptase), 2 μl of 0.1M DTT (attached to SuperScript II ReverseTranscriptase), 1 μl of RNaseOUT (Invitrogen) and 1 μl of SuperScript II ReverseTranscriptase, incubation was performed at 42° C. for 50 minutes and then at 70° C. for 15 minutes, followed by ice cooling for 5 minutes. The thus prepared cDNA was purified using Ethachinmate in accordance with the protocol attached and dissolved in Tris-EDTA Buffer (Fluka).
In TaqMan PCR below, rIL-13-tF (SEQ ID NO: 24) and rIL-13-tR (SEQ ID NO: 25) were used as primers and rIL-13-tP (SEQ ID NO: 26) as a probe for quantification of rat IL-13 (interleukin-13) and rIL-13 standard (SEQ ID NO: 27) was used as a standard. TaqMan Rodent GAPDH Control Reagents VIC Probe (Applied Biosystems) were used as primers and a probe for quantification of GAPDH, and rGAPDH standard (SEQ ID NO: 28) was used as a standard. […]
In general terms: Quantitative PCR measures a nucleic acid by following its amplification.

In a further assay the target is T1, GPR34 (Homo sapiens, UniProt Q9UPC5).
T1 construct: expressed in transfected cells
T1 sequence (Q9UPC5 whole entry): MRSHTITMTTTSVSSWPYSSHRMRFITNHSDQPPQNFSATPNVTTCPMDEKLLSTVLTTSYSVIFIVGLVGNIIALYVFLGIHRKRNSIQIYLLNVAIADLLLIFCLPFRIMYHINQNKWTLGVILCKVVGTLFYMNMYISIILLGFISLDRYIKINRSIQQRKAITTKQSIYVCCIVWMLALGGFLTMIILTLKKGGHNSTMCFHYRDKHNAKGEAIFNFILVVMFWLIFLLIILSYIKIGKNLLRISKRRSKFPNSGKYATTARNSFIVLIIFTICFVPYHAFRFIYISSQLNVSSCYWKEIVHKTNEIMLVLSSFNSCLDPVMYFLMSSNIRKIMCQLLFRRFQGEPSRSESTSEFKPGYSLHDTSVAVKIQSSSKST
Nature of the assay: DNA synthesis activity (tritium-labeled thymidine) of human GPR34-expressed CHO cells. The following applies: serum-free medium, 16 hours. As for the experimental part:
The human GPR34-expressed CHO cells prepared by the procedure as described in REFERENCE EXAMPLE 1 were plated at a cell density of 20,000 cells/well on a 96-well plate charged with serum-free medium. The cells were allowed to stand for 4 hours, 0, 0.1, 0.3, 1 and 3 μM lysoPS was added thereto, respectively, followed by incubation for 16 hours. After 1 μCi/well of tritium-labeled thymidine (Amersham, TRK120) was added to achieve labeling for 4 hours, fixation was performed in 10% trichloroacetic acid. Solubilization in an aqueous sodium hydroxide solution was followed by neutralization in trichloroacetic acid to collect DNA with a cell harvester. The radioactivity on the filter was taken as DNA synthesis activity.

Assay [3] deals with rat primary culture microglial cells (PMGC). Nature of the assay: Expression of cytokine genes in activated PMGC (TaqMan PCR). The following applies: lysoPS 5 μM, LPS 1 μg/ml, IFN-α 1 ng/ml. As for the experimental part: In order to examine the action of lysoPS on the activation of microglia, actions induced by the addition of lysoPS in PMGC activated by LPS stimulation was examined in the presence of IFN-α. PMGC, which was prepared from the brain of rat of one day old on the preceding day, was plated on a 24-well plate (Falcon 353047) at 50000 cells/well, and IFN-α (1 ng/ml, Biovision) was added 6 hours after. On the following day, lysoPS (5 μM) was added upon stimulation by LPS (1 μg/ml), and comparison was made between the presence and absence of lysoPS if cytokine production was affected. RNA was prepared as in the procedure described in EXAMPLE 4 for 2 and 8 hours after addition or without addition of LPS and lysoPS (5 μM). The sequencing information of the primers, probe and standard used for TaqMan are as described above. The cytokine production was compared by TaqMan PCR in terms of changes in expression levels of cytokine genes.

Where [4] appears, read: antigen (DNP-BSA 100 ng/ml)+lysoPS 3 μM, 4 hours after the stimulation.
The mark [5] stands for this setting: antigen+lysoPS 3 μM, 6 after the stimulation.
[6] abbreviates: antigen+lysoPS 3 μM, 8 hours after the stimulation.

As for lysophosphatidylserine [lysoPS], in assay [1], the “phosphorylation of ERK1/2” value is “also noted in PMGC”. The “expression level of IL-13 after GAPDH correction, compared to stimulation by the antigen alone” value in assay [2] (setting [4]) is listed as “about 36 times”; in assay [2] (setting [6]) it was “about 27 times”. In addition, the “expression level of IL-13 after GAPDH correction, compared to the level without any stimulation” value in assay [2] (setting [4]) is “about 27 times”; in assay [2] (setting [6]), “about 13 times”. In assay [2] (setting [5]), the “expression level of IL-13, compared to stimulation by the antigen alone” value is given as “about 19 times”. Also, the “expression level of IL-13, compared to the level without any stimulation” value in assay [2] (setting [5]) is on record as “about 13 times”. Further, the “expression level of IL-13 (in words)” value in assay [2] (stimulated by the antigen+lysoPS) was “marked increase in expression”. Besides, the “DNA synthesis activity, increase” value stood at 1.1 times at GPR34 (0.1 μM lysoPS), 1.2 times at GPR34 (0.3 μM lysoPS), 2.0 times on GPR34 (1 μM lysoPS) and 3.2 times at GPR34 (3 μM lysoPS). In assay [3] (2 hours after the addition), the “expression of inflammatory cytokine IL-6” value is on record as “tendency to suppress the expression”. The “expression of inflammatory cytokine TNF-α” value in assay [3] (2 hours after the addition) was “tendency to suppress the expression”. The “expression of anti-inflammatory cytokine IL-10” value in assay [3] (8 hours after) was “tendency to increase its expression”.
